The values below come from US20080234203A1, “Use of Substances Having Oxytocin Antagonistic Properties” (Ferring BV, priority 2004, published 2008).

For test [1], the system named is isolated rat uterine artery. The experiment in a line: In vitro contractility of isolated rat uterine artery from nonpregnant, midpregnant and late pregnant rats. An excerpt: The X axis-represents the oxytocin concentration {log M} and the Y axis represents % of phenylephrine-induced contraction. […] The following pD2 values were obtained, non-pregnant (9.32±0.41, n=7), midpregnant (7.46±0.13, n=6) and late pregnant (7.87±0.39, n=6). It could be speculated that the generally lower sensitivity of uterine vessels during pregnancy is related to eventually higher local oxytocin concentrations.
(§1) Nonpregnant or timed-pregnant Sprague-Dawley rats (of a 22-day pregnancy, with day 1 being the day when the sperm plug was observed) were obtained from Charles River Laboratories (Houston, Tex.). In some studies Spontaneously Hypertensive Rats (SHR) and their respective normatensive controls (WKY) were used. Rats were killed by means of carbon dioxide inhalation on day 14 (midterm pregnant) or day 22 before labor (term pregnant) or during the estrus cycle (nonpregnant). […] Contractions of uterine vascular tissues (cut into rings) were recorded and stored on computer with the DI-220 (DataQ Instruments Inc, Akron, Ohio) data acquisition system. […]
(§2) Data were analyzed by using Windaq/200 (DataQ Instruments Inc) software. Integral activity as an area under the tracing of vascular contractions for 10 minutes (expressed as milligrams per second) before (basal activity) and after the addition of each concentration of the agent was calculated and compared with basal activity (as percentage change). […] The concentration of oxytocin causing 50% of the maximal effect was determined, and the −log50 of the half maximal effect and the area under the concentration-response curves were calculated and compared. The data are expressed as mean ± SD. […]

Test [2] concerns isolated uterine artery, femoral artery, carotoid artery and aorta. The experiment in a line: In vitro contractility of isolated arteries from non-pregnant SHR rats. The settings on record: uterine arteries compared with femoral artery. Also noted: species or system spontaneous hypertensive (SHR) rats.
Text: as §1, §2

Test [3] shares this test system. Description: In vitro contractility of isolated arteries from non-pregnant WKY rats. Also noted: species or system Wistar (WKY) rats.
Text: as §1, §2

The test system of test [4] is pregnant rats. The experiment in a line: Blood pressure measurements in pregnant rats (tail cuff). The conditions noted are these: 200 μg/d, gestational day 19 to 22 and pp1 to pp7. In kind it is in vivo, rat. On the procedure: The X axis represents the time of pregnancy (gestational age), and the Y axis represents the systolic blood pressure (mmHg). Barusiban (200 μg/d), atosiban (200 μg/d) and control (saline) (200 μg/d) were administered to pregnant rats from gestational day 19 to 22 and during pp1 to pp7 (pp=post partum).
Animals. Adult nulliparous pregnant rats (300-325 g body weight) were purchased from Harlan Sprague Dawley, Inc (Indianapolis, Ind.), and were received in the animal facilities on day 16 of pregnancy (with day 1 being the day of the positive sperm smear result). All animals were given free access to food and water.
Blood pressure measurement. Starting on day 19 of pregnancy systolic blood pressure was measured daily or every other day with a pneumatic tail cuff device (NARCO Biosystems, Inc, Austin, Tex.) in animals that had been warmed in a metal chamber maintained at approximately 30° C. Blood pressure values obtained from 3 consecutive measurements were averaged and recorded as the pressure for a given rat at each point. Measurements of systolic blood pressure of all animals were carried out until delivery and for seven days post partum (pp7) All animals delivered on day 22 of gestation, the expected day of delivery. Three groups of animals were studied: Group 1. […]
Statistical analysis. Mean +/− SEM values were calculated for blood pressure levels on each day of pregnancy and post partum. […]

As for `CC[C@H](C)[C@@H]1NC(=O)[C@H](Cc2ccc(O)cc2)NC(=O)[C@@H](N)CSSC[C@@H](C(=O)N2CCC[C@H]2C(=O)N[C@@H](CC(C)C)C(=O)NCC(N)=O)NC(=O)[C@H](CC(N)=O)NC(=O)[C@H](CCC(N)=O)NC1=O` [oxytocin], the “pD2 (oxytocin-induced contraction, % of phenylephrine-induced contraction)” value stood at 7.87±0.39 in test [1] (uterine artery of late pregnant rats, n=6); 7.46±0.13 in test [1] (uterine artery of midpregnant rats, n=6); 9.32±0.41 in test [1] (uterine artery of non-pregnant rats, n=7). Further, the “oxytocin sensitivity (contraction dose/response)” value is listed as “highest sensitivity” in test [2]; “outstanding high sensitivity” in test [3] (uterine arteries compared with femoral artery, carotoid artery and aorta, non-pregnant WKY rats); “higher sensitivity” in test [3] (uterine arteries of non-pregnant WKY rats compared with SHR rats).

For the compound “C^4,6, S^1-cyclo [Barusiban, C^4,6, S^1-cyclo [N-(3-sulfanylpropanoyl) -D-tryptophyl-L -isoleucyl-L-alloisoleucyl-L-asparaginyl-L-2-aminobutanoyl-N-methyl-L-ornithinol]]”, the systolic blood pressure result in test [4] is “beneficial drop in systolic blood pressure around birth”.
